Assay results as given in patent publication US9518041B2, “(+)-5-(3,4-difluorophenyl)-5-[(3-methyl-2-oxopyridin-1(2H)-yl)methyl]imidazolidine-2,4-dione and drug containing same” (KAKEN PHARMACEUTICAL CO., LTD., priority 2013, dated 2016).

How the values were obtained:
human MMP-1 = target: T1, human MMP-1 (Homo sapiens, UniProt P03956); experiment: MMP-1 inhibition test; format: biochemical; conditions: read-out: Inhibitory activity (IC50, nM) MMP-1
T1 construct: purchased Calbiochem 444208
T1 sequence (P03956 100-469): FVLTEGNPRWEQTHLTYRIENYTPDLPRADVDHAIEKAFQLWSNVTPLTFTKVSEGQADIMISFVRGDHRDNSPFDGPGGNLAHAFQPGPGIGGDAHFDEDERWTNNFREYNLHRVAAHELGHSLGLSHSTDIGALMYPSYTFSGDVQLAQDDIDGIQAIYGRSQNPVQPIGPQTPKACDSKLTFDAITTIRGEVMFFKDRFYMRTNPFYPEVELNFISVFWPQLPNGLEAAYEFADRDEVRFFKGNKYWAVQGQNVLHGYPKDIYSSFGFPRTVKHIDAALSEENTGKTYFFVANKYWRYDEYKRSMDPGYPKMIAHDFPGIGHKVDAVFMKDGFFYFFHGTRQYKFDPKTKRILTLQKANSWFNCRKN
Method: MMP inhibition tests can be carried out, for example, using a fluorescent synthetic substrate based on the methods described in Bickett et al. (D. Mark Bickett et al., Anal. Biochem., 1993, 212, 58-64) and Nagase et al. (H. Nagase et al., J. Biol. Chem., 1994, 269, 20952-20957). The method for each MMP inhibition test is shown below.
180 μL (100 ng) of human MMP-1 (Calbiochem #444208) was mixed with 20 μL of 10 mM p-amino phenyl mercuric acetate (APMA), and activated by reacting at 37° C. for 1 hour. 20 μL of the resultant enzyme solution was diluted to 90 μL with an assay buffer A. The mixture was added to 90 μL of a 20 μM fluorescent substrate (Dnp-Pro-Cha(β-cyclohexylalanyl)-Gly-Cys(Me)-His-Ala-Lys(Nma)-NH2) (SEQ ID NO: 2) prepared with an assay buffer B, and reacted at 37° C. for 5 hours. Enzyme activity was then determined by measuring with a fluorescence intensity meter (Labsystems, Fluoroskan Ascent) at an excitation wavelength of 355 nm and a measurement wavelength of 460 nm.
From the enzyme activity in the presence or the absence of the test substance, the inhibition rate was determined, and the 50% inhibitiory concentration (IC50) of the test substance was calculated.

[1] = test system: auricular oedema induced by TPA; experiment: Inhibition test of auricular oedema induced by single application of TPA in mouse; format: in vivo, BALB/c mice
Method: Auricular oedema was induced by applying 54 μmol/L TPA-acetone solution on both the inner and outer sides of the left ear of BALB/c mice (application volume of 54 μmol/L TPA-acetone solution is 10 μL for each side of the left ear (i.e. 1.08 nmol TPA/auricle)). For a non-induced group, acetone was similarly applied instead of the 54 μmol/L TPA-acetone solution. […] Auricle thickness was measured under ether anesthesia the day before TPA application and 6 hours after TPA application for evaluation of the auricular oedema inhibition effect of the test substance based on the increase in auricle thickness as an index.
The auricular oedema inhibition rate (%) of the test substance was calculated based on the following formula using (A) the average value of the increase in auricular thickness of the group administered with the test substance, (B) the average value of the increase in auricular thickness of the non-induced group, and (C) the average value of the increase in auricular thickness of the control group. […]
The auricular oedema inhibition rate (%) of etanercept was calculated based on the following formula using (B) the average value of the increase in auricular thickness of the non-induced group, (D) the average value of the increase in auricular thickness of the etanercept group, and (E) the average value of the increase in auricular thickness of the hIgG group. […]

Compound: Cc1cccn(CC2(c3ccc(F)c(F)c3)NC(=O)NC2=O)c1=O (single isomer, unassigned; (+)) [(+)-5-(3,4-difluorophenyl)-5-[(3-methyl-2-oxopyridin-1(2H)-yl)methyl]imidazolidine-2,4-dione]
- IC50 (human MMP-1): > 10000 nM
- Auricular oedema inhibition rate (%) ([1]; BALB/c mice, topical 1 w/v % solution, 10 μL each side of left ear, 1 hour before TPA, auricle thickness 6 hours after TPA): 62%
- Etanercept ratio (inhibition rate of test substance / inhibition rate of etanercept) ([1]; etanercept 1 mg/mouse intravenously as positive control): 3.4
